The source of these data is US7943296B2, “Methods of screening using a natriuretic peptide receptor” (Oregon Health & Science University, priority 2005, dated 2011).

Experiment [1] relates to α-SMA promoter. Nature of the experiment: TGF-β1-induced α-SMA-luciferase reporter in CFs transfected with pcDNA3-sNRF or control vector. Format: cell-based. As to conditions: for inhibitory effect on sNRF action (loss of NP inhibition of α-SMA-luciferase): sNRF-transfected CFs, TGF-β1 + ANP, 24 hours. How it is done: TGF-β1 signaling is required for angiotensin effects in the heart, and NPs oppose TGF-β1 effects in CFs. […] CFs were transiently transfected with the α-SMA-luciferase vector and pcDNA3 control vector or pcDNA3-sNRF, then treated for 24 hours with TGF-β1, ANP, and the angiotensin-converting enzyme inhibitor captopril (CAP) or the angiotensin receptor-1 blocker losartan (LOS).

The target in experiment [2] is T1, PKG (Homo sapiens, UniProt Q13976).
T1 construct: endogenous in cells; host or cells: HEK293 stably over-expressing FLAG-NPRA (HEK-NPRA)
T1 sequence (Q13976 1-671): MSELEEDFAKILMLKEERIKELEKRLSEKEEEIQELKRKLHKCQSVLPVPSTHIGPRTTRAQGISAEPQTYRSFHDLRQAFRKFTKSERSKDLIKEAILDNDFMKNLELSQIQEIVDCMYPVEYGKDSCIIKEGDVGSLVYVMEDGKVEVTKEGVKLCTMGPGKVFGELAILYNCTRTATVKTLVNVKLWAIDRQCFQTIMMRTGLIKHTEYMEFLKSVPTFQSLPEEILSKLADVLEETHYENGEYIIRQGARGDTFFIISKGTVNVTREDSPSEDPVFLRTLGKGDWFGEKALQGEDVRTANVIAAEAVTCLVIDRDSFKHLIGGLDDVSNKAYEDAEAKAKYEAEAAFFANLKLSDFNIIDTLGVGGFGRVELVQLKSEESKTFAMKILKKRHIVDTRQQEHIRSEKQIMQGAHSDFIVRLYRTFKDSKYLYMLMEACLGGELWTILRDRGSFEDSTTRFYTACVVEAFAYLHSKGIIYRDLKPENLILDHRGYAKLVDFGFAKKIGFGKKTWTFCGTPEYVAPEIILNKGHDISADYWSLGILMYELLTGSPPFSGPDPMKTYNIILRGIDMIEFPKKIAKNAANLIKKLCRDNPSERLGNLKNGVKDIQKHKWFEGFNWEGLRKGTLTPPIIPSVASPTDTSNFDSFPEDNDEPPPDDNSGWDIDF
In words: Immunofluorescence of NP-induced PKG membrane translocation in HEK-NPRA cells. Format: cell-based. The settings on record: fragment expressed in HEK-NPRA cells; ANP 100 nM 15 minutes. How it is done: HEK-NPRA cells were transiently transfected with insertless pcDNA3 plasmid vector or pcDNA3-sNRF^(806-1061). All slide wells were treated with atrial natriuretic peptide (ANP) (100 nM; Sigma-Aldrich #A1663) for 15 minutes. Cells were decorated with monoclonal flag antibody specific for FLAG-NPRA (red) and polyclonal PKG antibody (green). Overlapping regions of PKG and NPRA appeared yellow-orange. PKG staining was absent when anti-PKG antibody was pre-adsorbed with recombinant PKG protein (Calbiochem).

Experiment [3] concerns the target T2, PKG (Rattus norvegicus, UniProt A9LNM8).
T2 construct: endogenous in cells; host or cells: primary neonatal rat cardiac fibroblasts transfected with 5'-FLAG sNRF fragments
T2 sequence (A9LNM8 1-671): T1 sequence (Q13976 1-671) with E227D, T265K, N267S, G291E, K499E, N586S, N656S
In words: Co-immunoprecipitation of PKG with FLAG-tagged NPRA fragments in primary CFs. Format: binding. As to conditions: 5'-FLAG-tagged fragment in transfected CFs, anti-FLAG M2 affinity gel. The procedure: Neonatal rat ventricular fibroblasts (CFs) were cultured from 1 to 2-day-old Harlan Sprague-Dawley rats as described previously (Simpson, Circulation Res. 56:884-94, 1985). Briefly, ventricles were dissected free from atria and quartered. Following dissociation in ADS buffer containing 1.5 mg/ml trypsin (Gibco #27250-018) and 1% DNase solution (2 mg/ml DNase type II, 150 mM NaCl) with serum neutralization the collected cells were pre-incubated in media at 37° C. for 90 minutes to allow CF attachment to the bottom of culture dishes. CFs were incubated in plating media for 48 hours, divided into 6-well culture plates or dual-well chamberslides, and grown to 50% confluency in DMEM with 10% FBS prior to use.
CFs were transiently transfected with nucleic acid molecules encoding sNRF^(806-1061), sNRF^(806-900), or sNRF^(806-860) using routine methods. Briefly, PCR-generated, 5′-FLAG epitope-tagged sNRFs were subcloned into the BamHI and EcoRI sites of pCDNA3 (Invitrogen) and sequenced to verify construction accuracy. […]
The ability of the NPRA fragments to immunoprecipitate PKG was determined in the primary CF cells transfected with the 5′-FLAG epitope-tagged NPRA fragments as follows. […] Bound antibody was detected with chemiluminescent substrate (Western Lightning ECL, PerkinElmer Life Sciences).

The test system of experiment [4] is α-SMA promoter. Nature of the experiment: α-SMA-luciferase reporter in neonatal rat CFs with daily TGF-β1, model of NP resistance. Format: cell-based. How it is done:
Neonatal rat CFs were transfected with an α-SMA-luciferase reporter construct driven by TGF-β1 induction of the α-SMA promoter. After 24 hours, cells were treated daily with […] TGF-β1 for up to 4 days. On each successive day, some of the cells were treated with NP (ANP, 100 nM), and luciferase activity measured.
(Reporter assays use an easily measured gene product as a stand-in for the process of interest.)

The test system of experiment [5] is cardiac fibroblasts (CFs). Nature of the experiment: bFGF-induced α-SMA protein expression in CFs (Western blot). Format: cell-based, rat. The settings on record: cells with insertless vector; 10 ng/ml FGF 48 hours; 100 nM ANP. The procedure: (§1) NP's ability to inhibit growth factor-induced CF differentiation into myofibroblasts was determined as follows. CFs were transiently transfected with insertless pcDNA3 vector or pcDNA3 encoding sNRF^(806-900) (see Example 7). The transfected CFs were then treated for 48 hours with 10 ng/ml basic fibroblast growth factor (FGF; Sigma-Aldrich #F0291) in the presence or absence of 100 nM ANP. Alpha-smooth muscle actin (α-SMA) protein expression, the principal marker of CF differentiation, was assessed by Western blotting and immunofluorescence microscopy. Vimentin staining was used as a loading control because it is expressed equally in fibroblasts and transdifferentiated myofibroblasts.
(In general: In western blotting, separated proteins are transferred to a membrane and probed.)

Experiment [6] deals with cardiac fibroblasts (CFs). Nature of the experiment: Vimentin localisation in CFs by immunofluorescence microscopy. As to conditions: in the presence of ANP. Format: cell-based, rat. How it is done: as §1
For the immunofluorescence microscopy, slide wells were treated as described in Example 7 and incubated with anti-α-SMA and anti-vimentin antibody as well as phalloidin to stain for actin. Briefly, cells were rinsed twice with phosphate-buffered saline (PBS) and fixed with 3.7% formaldehyde in PBS for 10 minutes. After fixation, cells were rinsed with PBS and permeabilized with 0.3% Triton X-100 in PBS for 10 minutes and blocked for 1 hour in 1% horse serum, 0.2% bovine serum albumin in PBS. Cells were then incubated with primary α-SMA antibody (ABCAM ab7817) and primary vimentin antibody (ABCAM ab7783) diluted in blocking solution for 1 hour and washed three times with blocking solution for 5 minutes. […]

Numbering of substitutions follows the chain as printed.

In the case of `CCCCc1nc(Cl)c(CO)n1Cc1ccc(-c2ccccc2-c2nn[nH]n2)cc1` [losartan], the “NP-inhibition of TGF-β1 induction of α-SMA-luciferase” value in the experiment on α-SMA promoter [1] (non-sNRF transfected cells) was “blocks NP-inhibition of TGF-β1 induction of α-SMA-luciferase”. For the same molecule, the “inhibitory effect on sNRF action (loss of NP inhibition of α-SMA-luciferase)” value with α-SMA promoter [1] is “no significant inhibitory effect”.

Regarding `C[C@H](CS)C(=O)N1CCC[C@H]1C(=O)O` [captopril], the “inhibitory effect on sNRF action (loss of NP inhibition of α-SMA-luciferase)” value in the experiment on α-SMA promoter [1] is “no significant inhibitory effect”.

Regarding “sNRF^(806-1061): intracellular NPRA fragment, residues 806-1061, with hinge domain and C-terminal guanylyl cyclase domain; expressed FLAG-tagged”, in the experiment with PKG [2], the “translocation of cytosolic PKG to the plasma membrane” value is recorded as “inhibited translocation of cytosolic PKG to the plasma membrane”. For the same molecule, the “co-immunoprecipitation of PKG” value with PKG [3] is given as “co-immunoprecipitated PKG”.

For the molecule `CC[C@H](C)[C@@H]1NC(=O)[C@H](CCCNC(=N)N)NC(=O)[C@H](CC(=O)O)NC(=O)[C@H](CCSC)NC(=O)[C@H](CCCNC(=N)N)NC(=O)CNC(=O)CNC(=O)[C@H](Cc2ccccc2)NC(=O)[C@@H](NC(=O)[C@H](CO)NC(=O)[C@H](CO)NC(=O)[C@H](CCCNC(=N)N)NC(=O)[C@H](CCCNC(=N)N)NC(=O)[C@H](CC(C)C)NC(=O)[C@@H](N)CO)CSSC[C@@H](C(=O)N[C@@H](CC(N)=O)C(=O)N[C@@H](CO)C(=O)N[C@@H](Cc2ccccc2)C(=O)N[C@@H](CCCNC(=N)N)C(=O)N[C@@H](Cc2ccc(O)cc2)C(=O)O)NC(=O)CNC(=O)[C@H](CC(C)C)NC(=O)CNC(=O)[C@H](CO)NC(=O)[C@H](CCC(N)=O)NC(=O)[C@H](C)NC(=O)CNC1=O` [ANP, atrial natriuretic peptide], the “expression of the luciferase reporter construct driven by TGF-β1 induction of the α-SMA promoter” value in the experiment with α-SMA promoter [4] (NP (ANP, 100 nM) 24 hours, 100 nM TGF-β1) is “almost completely inhibited”. In addition, the “NP's inhibitory effect on TGF-β1-induced α-SMA-luciferase” value with α-SMA promoter [4] (progressively longer periods of NP treatment, up to 4 days) was “steady decline in NP's inhibitory effects”. Further, in experiment [5], the “bFGF-induced α-SMA protein expression” value is “inhibited bFGF-induced α-SMA protein expression”. Further, in experiment [6], the “nuclear to cytosolic translocation of vimentin” value was “nuclear to cytosolic translocation of vimentin was observed”. In the experiment with α-SMA promoter [1] (cells that do not over-express sNRF), the “TGF-β1-induced α-SMA-luciferase expression” value is “inhibits TGF-β1-induced α-SMA-luciferase expression”.
